This passage reports IC50 results from patent US20040186081A1, “Naaladase inhibitors for treating opioid tolerance” (Guilford Pharmaceuticals Inc., priority 2003, published 2004).

A word on the IC50: it is the concentration needed to halve the response being measured.

SMILES strings stand for the structures.

In this experiment the target is NAALADase (Homo sapiens, UniProt Q04609). Put plainly: In vitro inhibition of NAALADase activity. The experiment is classed as biochemical. To be noted: read-out: IC50.
Sequence of NAALADase (Q04609 whole entry): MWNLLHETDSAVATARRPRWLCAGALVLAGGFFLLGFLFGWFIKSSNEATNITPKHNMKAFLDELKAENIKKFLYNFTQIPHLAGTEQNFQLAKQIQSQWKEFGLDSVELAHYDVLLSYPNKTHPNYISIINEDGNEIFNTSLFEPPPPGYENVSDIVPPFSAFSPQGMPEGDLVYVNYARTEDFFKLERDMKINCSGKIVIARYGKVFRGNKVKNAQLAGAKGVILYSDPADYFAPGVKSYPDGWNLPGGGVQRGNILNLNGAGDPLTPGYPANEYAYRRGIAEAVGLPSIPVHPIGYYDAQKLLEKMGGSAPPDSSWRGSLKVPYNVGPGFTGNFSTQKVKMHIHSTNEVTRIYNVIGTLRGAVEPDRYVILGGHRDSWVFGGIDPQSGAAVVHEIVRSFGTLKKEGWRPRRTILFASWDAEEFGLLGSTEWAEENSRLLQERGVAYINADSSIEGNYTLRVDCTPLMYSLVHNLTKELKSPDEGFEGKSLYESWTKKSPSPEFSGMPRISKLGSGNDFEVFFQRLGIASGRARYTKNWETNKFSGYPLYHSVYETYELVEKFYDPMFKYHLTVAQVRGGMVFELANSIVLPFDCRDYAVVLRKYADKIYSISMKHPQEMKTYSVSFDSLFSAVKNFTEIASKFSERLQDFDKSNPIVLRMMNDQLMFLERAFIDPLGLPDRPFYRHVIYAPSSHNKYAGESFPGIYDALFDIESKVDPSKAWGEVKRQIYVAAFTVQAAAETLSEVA

On to `O=C(CSCCCC(Cc1cc(C(=O)O)ccc1Cl)C(=O)O)NO` (stereo not drawn) [3-(2-Carboxy-5-hydroxycarbamoylmethyl-sulfanylpentyl)-4-chloro-benzoic acid], for which the IC50 amounted to 16000 nM.

Take `O=C(CSCCCC(Cc1cc(Oc2ccccc2)cc(C(=O)O)c1)C(=O)O)NO` (stereo not drawn) [3-(2-Carboxy-5-hydroxycarbamoylmethyl-sulfanylpentyl)-5-phenoxy-benzoic acid]: the IC50 came out at 3250 nM.

As to `O=C(CSCCCC(Cc1cccc(C(=O)O)c1)C(=O)O)NO` (stereo not drawn) [3-(2-Carboxy-5-hydroxycarbamoylmethyl-sulfanylpentyl)-benzoic acid], the IC50 was 384 nM.

On to `O=C(CSCCCCC(Cc1cccc(C(=O)O)c1)C(=O)O)NO` (stereo not drawn) [3-(2-Carboxy-6-hydroxycarbamoylmethyl-sulfanylhexyl)-benzoic acid], for which the IC50 amounted to 3330 nM.

`COC(=O)c1cccc(-c2cccc(OCCC(=O)NO)c2C(=O)OC)c1` [3-(2-Hydroxycarbamoyl-ethoxy)-biphenyl-2,3′-dicarboxylic acid dimethyl ester]: the IC50 was at least 100000 nM.

Consider `O=C(O)c1ccccc1Oc1cccc(CC(CCCS)C(=O)O)c1` (stereo not drawn) [3-(2-carboxyphenoxy)-alpha-(3-mercaptopropyl)-benzenepropanoic acid], for which the IC50 is 49 nM.

Consider `O=C(O)c1ccc(-c2cccc(CCS)c2C(=O)O)cc1` [3-(2-mercaptoethyl)-[1,1′-biphenyl]-2,4′-dicarboxylic acid], for which the IC50 was determined as 4.28 nM.

As for `O=C(O)c1cccc(CCS)c1` [3-(2-mercaptoethyl)-benzoic acid], the IC50 is 6050 nM.

Take `O=C(CCCOc1cccc(-c2cccc(C(=O)O)c2)c1C(=O)O)NO` [3-(3-Hydroxycarbamoyl-propoxy)-biphenyl-2,3′-dicarboxylic acid]: the IC50 came to 9100 nM.

For the molecule `O=C(O)c1cccc(CS)c1` [3-(mercaptomethyl)-benzoic acid], the IC50 was determined as 3780 nM.

On to `O=C(CSCCCC(Cc1cc(OCc2ccccc2)cc(C(=O)O)c1)C(=O)O)NO` (stereo not drawn) [3-Benzyloxy-5-(2-carboxy-5-hydroxycarbamoylmethyl-sulfanylpentyl)-benzoic acid], for which the IC50 is 2570 nM.

For `O=C(CSCCCC(Cc1cc(Br)cc(C(=O)O)c1)C(=O)O)NO` (stereo not drawn) [3-Bromo-5-(2-carboxy-5-hydroxycarbamoyl-methylsulfanylpentyl)-benzoic acid], the IC50 was found to be 2460 nM.

Take `O=C(COc1cccc(C(=O)O)c1)NO` [3-Hydroxycarbamoylmethoxy-benzoic acid]: the IC50 is 40800 nM.

Take `COC(=O)c1cccc(-c2cccc(OCC(=O)NO)c2C(=O)OC)c1` [3-Hydroxycarbamoylmethoxy-biphenyl-2,3′-dicarboxylic acid dimethyl ester]: the IC50 was at least 100000 nM.

Take `O=C(COc1cccc(-c2cccc(C(=O)O)c2)c1C(=O)O)NO` [3-Hydroxycarbamoylmethoxy-biphenyl-2,3′-dicarboxylic acid]: the IC50 was 27600 nM.

With `O=C(O)c1cccc(SC(CCCS)C(=O)O)c1` (stereo not drawn) [3-[1-carboxy-4-mercaptobutyl)thio]-benzoic acid], the IC50 was 24 nM.

As to `CCC(SCC(Cc1cccc(C(=O)O)c1)C(=O)O)C(=O)NO` (stereo not drawn) [3-[2-Carboxy-3-(1-hydroxycarbamoyl-propylsulfanyl)-propyl]-benzoic acid], the IC50 is 41500 nM.

With `O=C(CCCSCC(Cc1cccc(C(=O)O)c1)C(=O)O)NO` (stereo not drawn) [3-[2-Carboxy-3-(3-hydroxycarbamoyl-propylsulfanyl)-propyl]-benzoic acid], the IC50 is 6050 nM.

Consider `CCC(SCCC(Cc1cccc(C(=O)O)c1)C(=O)O)C(=O)NO` (stereo not drawn) [3-[2-Carboxy-4-(1-hydroxycarbamoyl-propylsulfanyl)-butyl]-benzoic acid], for which the IC50 came out at 19000 nM.

Regarding `CC(C)C(SCCCC(Cc1cccc(C(=O)O)c1)C(=O)O)C(=O)NO` (stereo not drawn) [3-[2-Carboxy-5-(1-hydroxycarbamoyl-2-methyl-propylsulfanyl)-pentyl]-benzoic acid], the IC50 is 2800 nM.

`CCCC(SCCCC(Cc1cccc(C(=O)O)c1)C(=O)O)C(=O)NO` (stereo not drawn) [3-[2-Carboxy-5-(1-hydroxycarbamoyl-butylsulfanyl)-pentyl]-benzoic acid]: the concentration for half-maximal inhibition (IC50) was 1530 nM.

As for `CCC(SCCCC(Cc1cccc(C(=O)O)c1)C(=O)O)C(=O)NO` (stereo not drawn) [3-[2-Carboxy-5-(1-hydroxycarbamoyl-propylsulfanyl)-pentyl]-benzoic acid], the IC50 turned out to be 3290 nM.

As to `O=C(CCSCCCC(Cc1cccc(C(=O)O)c1)C(=O)O)NO` (stereo not drawn) [3-[2-Carboxy-5-(2-hydroxycarbamoyl-ethylsulfanyl)-pentyl]-benzoic acid], the IC50 stood at 113 nM.

With `O=C(CCCCSCCCC(Cc1cccc(C(=O)O)c1)C(=O)O)NO` (stereo not drawn) [3-[2-Carboxy-5-(4-hydroxycarbamoyl-butylsulfanyl)-pentyl]-benzoic acid], the IC50 came out at 7580 nM.

Turning to `O=C(O)c1cccc(CC(CCCSC(C(=O)NO)c2ccccc2)C(=O)O)c1` (stereo not drawn) [3-[2-Carboxy-5-(hydroxycarbamoyl-phenyl-methylsulfanyl)-pentyl]-benzoic acid], the IC50 worked out at 1120 nM.

For `O=C(CCc1cccc(OCc2cccc(C(=O)O)c2)c1)NO` [3-[3-(2-Hydroxycarbamoyl-ethyl)-phenoxymethyl]-benzoic acid], the IC50 turned out to be 92700 nM.

Regarding `O=C(O)CNC(=O)c1cccc(CC(CCCS)C(=O)O)c1` (stereo not drawn) [3-[[(carboxymethyl)amino]carbonyl]-alpha-(3-mercaptopropyl)-benzenepropanoic acid], the IC50 amounted to 286 nM.

For `O=C(O)c1ccc(CC(CCCS)C(=O)O)cc1Br` (stereo not drawn) [3-bromo-4-carboxy-alpha-(3-mercaptopropyl)-benzenepropanoic acid], the IC50 amounted to 146 nM.

Regarding `O=C(O)c1cc(Br)cc(CC(CCCS)C(=O)O)c1` (stereo not drawn) [3-bromo-5-carboxy-alpha-(3-mercaptopropyl)-benzenepropanoic acid], the IC50 is 2.5 nM.

In the case of `O=C(O)c1cccc(CC(CCCS)C(=O)O)c1Cl` (stereo not drawn) [3-carboxy-2-chloro-alpha-(3-mercaptopropyl)-benzenepropanoic acid], the IC50 was 1200 nM.

`O=C(O)c1cc(CC(CCCS)C(=O)O)ccc1Cl` (stereo not drawn) [3-carboxy-4-chloro-alpha-(3-mercaptopropyl)-benzenepropanoic acid]: the IC50 turned out to be 175 nM.

For `O=C(O)c1cc(CC(CCCS)C(=O)O)ccc1F` (stereo not drawn) [3-carboxy-4-fluoro-alpha-(3-mercaptopropyl)-benzenepropanoic acid], the IC50 turned out to be 12 nM.

Take `CC(S)CCC(Cc1cc(C(=O)O)cc(C(C)(C)C)c1)C(=O)O` (stereo not drawn) [3-carboxy-5-(1,1-dimethylethyl)-alpha-(3-mercaptobutyl)-benzenepropanoic acid]: the IC50 amounted to 1 nM.

In the case of `CC(C)(C)c1cc(CC(CCCS)C(=O)O)cc(C(=O)O)c1` (stereo not drawn) [3-carboxy-5-(1,1-dimethylethyl)-alpha-(3-mercaptopropyl)-benzenepropanoic acid], the IC50 was found to be 0.05 nM.

For `CC(S)CCC(Cc1cccc(C(=O)O)c1)C(=O)O` (stereo not drawn) [3-carboxy-alpha-(3-mercaptobutyl)-benzenepropanoic acid], the IC50 was found to be 30 nM.

Consider `COc1cc(CC(CCCS)C(=O)O)cc(C(=O)O)c1` (stereo not drawn) [3-carboxy-alpha-(3-mercaptopropyl)-5-methoxy-benzenepropanoic acid], for which the IC50 amounted to 13 nM.

`O=C(O)c1cc(CC(CCCS)C(=O)O)cc([N+](=O)[O-])c1` (stereo not drawn) [3-carboxy-alpha-(3-mercaptopropyl)-5-nitro-benzenepropanoic acid]: the IC50 amounted to 3 nM.

`O=C(O)c1cc(CC(CCCS)C(=O)O)cc(Oc2ccccc2)c1` (stereo not drawn) [3-carboxy-alpha-(3-mercaptopropyl)-5-phenoxy-benzenepropanoic acid]: the IC50 stood at 5 nM.

As to `O=C(O)c1cccc(CC(CCCS)C(=O)O)c1` (stereo not drawn) [3-carboxy-alpha-(3-mercaptopropyl)-benzenepropanoic acid], the IC50 came out at 17 nM.

In the case of `COC(=O)c1cc(CC(C(=O)O)C(=O)NO)cc(C(C)(C)C)c1` (stereo not drawn) [3-tert-Butyl-5-(2-carboxy-2-hydroxycarbamoyl-ethyl)-benzoic acid methyl ester], the IC50 came to 38600 nM.

In the case of `CC(C)(C)c1cc(CC(C(=O)O)C(=O)NO)cc(C(=O)O)c1` (stereo not drawn) [3-tert-Butyl-5-(2-carboxy-2-hydroxycarbamoyl-ethyl)-benzoic acid], the IC50 worked out at 11900 nM.

For `CC(C)(C)c1cc(CC(CC(=O)NO)C(=O)O)cc(C(=O)O)c1` (stereo not drawn) [3-tert-Butyl-5-(2-carboxy-3-hydroxycarbamoyl-propyl)-benzoic acid], the IC50 was determined as 296 nM.

Consider `CC(C)(C)c1cc(CC(CCC(=O)NO)C(=O)O)cc(C(=O)O)c1` (stereo not drawn) [3-tert-Butyl-5-(2-carboxy-4-hydroxycarbamoyl-butyl)-benzoic acid], for which the IC50 turned out to be 0.2 nM.

In the case of `CC(C)(C)c1cc(CC(CCSCC(=O)NO)C(=O)O)cc(C(=O)O)c1` (stereo not drawn) [3-tert-Butyl-5-(2-carboxy-4-hydroxycarbamoylmethyl-sulfanylbutyl)-benzoic acid], the IC50 turned out to be 1060 nM.

Regarding `CCC(SCCC(Cc1cc(C(=O)O)cc(C(C)(C)C)c1)C(=O)O)C(=O)NO` (stereo not drawn) [3-tert-Butyl-5-[2-carboxy-4-(1-hydroxycarbamoyl-propylsulfanyl)-butyl]-benzoic acid], the IC50 is 16000 nM.

Take `CN(O)C(=O)CSCCCC(Cc1cccc(C(=O)O)c1)C(=O)O` (stereo not drawn) [3-{2-Carboxy-5-[(hydroxy-methyl-carbamoyl)-methylsulfanyl]-pentyl}-benzoic acid]: the IC50 stood at 14900 nM.

For the molecule `O=C(CSCCCC(Cc1cccc(-c2cccc(C(=O)O)c2)c1)C(=O)O)NO` (stereo not drawn) [3′-(2-Carboxy-5-hydroxycarbamoylmethylsulfanyl-pentyl)-biphenyl-3-carboxylic acid], the IC50 was 23500 nM.

Consider `O=C(O)c1ccccc1-c1cccc(CC(CCCS)C(=O)O)c1` (stereo not drawn) [3′-(2-carboxy-5-mercaptopentyl)-[1,1′-biphenyl]-2-carboxylic acid], for which the IC50 stood at 184 nM.

Consider `O=C(O)c1cccc(-c2cccc(CC(CCCS)C(=O)O)c2)c1` (stereo not drawn) [3′-(2-carboxy-5-mercaptopentyl)-[1,1′-biphenyl]-3-carboxylic acid], for which the IC50 turned out to be 1.83 nM.

For `O=C(O)Cc1ccc(OC(CCCS)C(=O)O)cc1` (stereo not drawn) [4-(1-carboxy-4-mercaptobutoxy)-benzeneacetic acid], the IC50 came to 82 nM.

As to `O=C(O)c1ccc(OC(CCCS)C(=O)O)cc1` (stereo not drawn) [4-(1-carboxy-4-mercaptobutoxy)-benzoic acid], the IC50 was determined as 192 nM.
